Data published in patent publication US20260263350A1, “COMPOSITIONS” (Estrenue Pty Ltd, priority 2022, published 2026).
Several values for one entry are separate records, joined by “and”; a condition that tells them apart may be missing. Identical values can stand only once.

Details: one skin biopsy 0.28 cm^2, 90 minutes
Procedure: A solution of E2 14C was prepared by adding 6 μL of E2 14C to 100 μL of water:ethanol (9:1) and mixed thoroughly.
The skin was marked with a surface area of 1.3 cm^2 followed by 20 times of tape stripping (D-Squame tape, 22 mm diameter) to remove the stratum corneum. The prepared E2 solutions were applied on tape stripped skin and left in the water bath for 90 minutes at 37° C. At the end of the experiment, residual materials were removed from the surface by wetting cotton swabs three times. The skin was then biopsied using a microsampling device with a diameter of 6 mm. Each piece of biopsy was placed in a 4 mL scintillation tube followed by adding 500 μL of the Solvable™ solution (Perkin Elmer Inc. USA). The samples were left in the incubator at 60° C. to digest skin overnight. To measure the E2 14C amount in each, scintillation fluid (Ultima Gold™ XR, Perkin Elmer Inc. USA) was added to fill the 4 mL tube and vortexed vigorously. […] The experiment was done in triplicates.
To calculate DPM, a counting efficiency of 25% was considered.

C[C@]12CC[C@@H]3c4ccc(O)[14cH]c4CC[C@H]3[C@@H]1CC[C@@H]2O [E2-14C, Estradiol, 17 β-[4-^14C]]
CPM (10 μL/cm^2 in water-ethanol on tape stripped skin): 1365 and 940 and 869 | DPM (counting efficiency 25%, tape stripped skin): 5337 and 3760 and 3476 | Total E2 (ng/Biopsy) (tape stripped skin): 11.9 ng/Biopsy and 8.4 ng/Biopsy and 7.7 ng/Biopsy | ng/Biopsy (E2-14C) (tape stripped skin): 11.9 ng/Biopsy and 8.4 ng/Biopsy and 7.7 ng/Biopsy | μCi/Biopsy (tape stripped skin): 0.002402 μCi/Biopsy and 0.001692 μCi/Biopsy and 0.001564 μCi/Biopsy
